Columns and labels:
[1] = Photostability (photobleaching) under irradiation; type: physicochemical
Excerpt: Compounds incorporating photosensitizing chromophores, such as tetrapyrrolic macrocycles, are susceptible to ROS-mediated photodegradation upon irradiation. Photostability of PSs is a critical parameter for achieving safe, effective, and precise PDT. It ensures sustained generation of ROS, minimizes the formation of potentially toxic or mutagenic degradation products, and preserves the structural and photophysical integrity of the PS during systemic circulation and tumor accumulation. High photostability is particularly important in delayed-activation protocols, enabling selective localization in target tissues. […] Thus, before assessing the photodynamic activity of the conjugates in TNBC cell lines, the photostability of 2 and conjugates 6, 7, and 8 was evaluated under the same conditions employed for the cell viability assays and the other biological studies reported in the present study. […]
To assess whether the peptide moiety underwent photoinduced degradation, samples of porphyrin 2 and its conjugates 6–8 were recovered and analyzed by HPLC at the end of the irradiation period.
For the chemical and biological analyses a 500 W tungsten white halogen lamp was used. […] The lamp has an irradiance of 22 mW/cm^2 (an average value determined between 380 and 780 nm with a Licor-1800 spectroradiometer, Li-COR, Bad Homburg, Germany), equating to 158 J/cm^2 of fluence over 2 h. […]

MCF7 = experiment: Intrinsic (dark) cytotoxicity, MTT assay without photoactivation; type: cell-based; conditions: no photoactivation, ten times the maximum PDT concentration (10 µM), mean ± SD of 5 independent experiments, in % (unit assumed)
Procedure: (§1) The photodynamic effect of conjugates 6–8 on cell viability, compared to the reference compound 2, was evaluated using the MTT ([3-(4,5-dimethylthiazol-2-yl)-2,5-diphenyltetrazolium bromide]) assay. Briefly, 3.5 × 10^3 cells per well were seeded in 96-well plates and incubated for 48 h to allow for adherence and growth. Following this incubation period, cells were treated with increasing concentrations of the test compounds (ranging from 1 to 1000 nM), prepared in complete culture medium. All compound dilutions were prepared to ensure a final DMSO concentration of 0.1% (v/v), which is considered non-toxic. Control samples included cells cultured in complete medium alone, as well as a vehicle control treated with 0.1% DMSO in the absence of any compound (PS treatment was omitted). 24 h after treatment with PS, the medium was replaced with 1X PBS. Photoactivation was performed using a 500 W white tungsten halogen lamp, delivering an irradiance of 22 mW/cm^2, corresponding to a total fluence of 158 J/cm^2 over a 2 h irradiation period. To prevent thermal damage from the light source, a cooling system was employed by placing a circulating water filter between the lamp and the irradiation area to dissipate excess heat. Following irradiation, the PBS was replaced with fresh, PS-free culture medium, and cells were incubated at 37 °C. 24 h later, MTT was added to each well at a final concentration of 0.4 mg/mL, and cells were incubated for 3 h at 37 °C to allow the MTT metabolization in viable cells. The resulting formazan crystals were then dissolved in DMSO. Optical density was measured at 590 nm using an Infinite® 200 PRO plate reader (Tecan Life Sciences, Switzerland), and the resulting data were analyzed by non-linear regression using GraphPad PRISM 9.2.0 software (GraphPad Software Inc., San Diego, CA, USA), and IC50 values were extrapolated from these curves.
(§2) The potential intrinsic cytotoxicity of the compounds was assessed under identical experimental conditions, except that the photoactivation step was omitted. […]

MDA-MB231 [2] = experiment: as above; type: cell-based; conditions: no photoactivation, ten times the maximum PDT concentration (10 µM), mean ± SD of 5 independent experiments, in % (unit assumed)
Procedure: as §1, §2

MDA-MB453 [3] = experiment: as above; type: cell-based; conditions: no photoactivation, ten times the maximum PDT concentration (10 µM), mean ± SD of 5 independent experiments, in % (unit assumed)
Procedure: as §1, §2

MDA-MB231 [4] = experiment: Intracellular ROS generation (DCFH-DA); type: cell-based; conditions: 24 h at IC50, 2 h irradiation with 10 μM DCFH-DA, 3 independent experiments
Procedure: (§3) Intracellular ROS generation was assessed using the fluorogenic probe 2′,7′-dichlorodihydrofluorescein diacetate (DCFH-DA; Invitrogen, Molecular Probes). Once internalized, DCFH-DA is hydrolyzed by intracellular esterases to form non-fluorescent dichlorodihydrofluorescein (DCFH), which ROS subsequently oxidizes to the highly fluorescent dichlorofluorescein (DCF). MDA-MB453 and MDA-MB231 cells were seeded in black 96-well plates and treated with the respective PSs at their IC50 concentrations for 24 h. Cells were then irradiated in the presence of 10 μM DCFH-DA. To quantify ROS production, fluorescence intensity was measured using a fluorescence microscope (excitation: 488 nm; emission: 520 nm). Quantitative analysis of fluorescence intensity, expressed in arbitrary fluorescence units, was performed using ImageJ software, version 1.53e, and normalized to untreated control samples.

MDA-MB453 [5] = experiment: Intracellular ROS generation (DCFH-DA); type: cell-based; conditions: 24 h at IC50, 2 h irradiation with 10 μM DCFH-DA, 3 independent experiments
Procedure: as §3

COC(=O)c1ccc(-c2c3nc(c([N+](=O)[O-])c4ccc([nH]4)c(-c4ccc(C(=O)OC)cc4)c4nc(cc5ccc2[nH]5)C=C4)C=C3)cc1 [compound 2, 10-Nitro-5,15-bis(4-carbomethoxyphenyl)porphyrin]
Soret band intensity retained after irradiation ([1]; 10 μM in PBS, 2 h exposure to 500 W tungsten-halogen lamp, 22 mW/cm^2, 158 J/cm^2, UV-Vis): approximately 90% | HPLC analysis at the end of the irradiation period (structural integrity) ([1]; after 2 h irradiation with 500 W tungsten-halogen lamp, HPLC): No shifts in retention times were observed | Survival fraction (dark toxicity) (MCF7): 89.7 ± 1.16 | Survival fraction (dark toxicity) (MDA-MB231 [2]): 91.2 ± 1.26 | Survival fraction (dark toxicity) (MDA-MB453 [3]): 90.8 ± 0.66 | Intracellular ROS levels (MDA-MB231 [4]): higher levels of intracellular ROS | Intracellular ROS levels (MDA-MB453 [5]): higher levels of intracellular ROS
